Measured values from paper PMC11859928, “Design, Synthesis, and Antiproliferative Activity of Novel Indole/1,2,4-Triazole Hybrids as Tubulin Polymerization Inhibitors” (Pharmaceuticals, 2025).

Legend:
Assay in all cases: NCI one-dose assay
Format in all cases: cell-based
MDA-MB-468 = conditions: Homo sapiens, MDA-MB-468, Breast cancer, read-out: Cell growth inhibition %
Method: (§1) The National Cancer Institute (NCI), Bethesda, USA, selected the final compounds 6a–j and 7a–j for in vitro anticancer screening. An initial in vitro single-dose anticancer experiment was performed with the entire NCI 60 cell lines derived from nine tumor subpanel cancer cell lines. The results for each compound were illustrated as a mean graph showing the percentage growth of treated cells compared to untreated control cells (see Supplementary Materials).
(§2) The NCI anticancer screening process has been thoroughly detailed. The Drug Evaluation Branch of the National Cancer Institute in Bethesda, […], USA, established the procedure and conducted the anticancer assay on 60 human tumor cell lines from nine neoplastic cancers.

HT29 = conditions: Homo sapiens, HT-29, HT29, Colon cancer, read-out: Cell growth inhibition %
Method: as §1, §2

HCT-15 = conditions: Homo sapiens, HCT-15, Colon cancer, read-out: Cell growth inhibition %
Method: as §1, §2

SK-MEL-2 = conditions: Homo sapiens, SK-MEL-2, Melanoma, read-out: Cell growth inhibition %
Method: as §1, §2

CCRF-CEM = conditions: Homo sapiens, Leukemia, read-out: Cell growth inhibition %
Method: as §1, §2

DU-145 = conditions: Homo sapiens, DU-145, Prostate cancer, read-out: Cell growth inhibition %
Method: as §1, §2

PC-3 = conditions: Homo sapiens, PC-3, Prostate cancer, read-out: Cell growth inhibition %
Method: as §1, §2

SK-OV-3 = conditions: Homo sapiens, SK-OV-3, Ovarian cancer, read-out: Cell growth inhibition %
Method: as §1, §2

COLO 205 = conditions: Homo sapiens, COLO 205, Colon cancer, read-out: Cell growth inhibition %
Method: as §1, §2

NCI/ADR-RES = conditions: Homo sapiens, Ovarian cancer, read-out: Cell growth inhibition %
Method: as §1, §2

M14 = conditions: Homo sapiens, M14, Melanoma, read-out: Cell growth inhibition %
Method: as §1, §2

NCI-H23 = conditions: Homo sapiens, NCI-H23, Non-small cell lung cancer, read-out: Cell growth inhibition %
Method: as §1, §2

OVCAR-8 = conditions: Homo sapiens, OVCAR-8, Ovarian cancer, read-out: Cell growth inhibition %
Method: as §1, §2

MOLT-4 = conditions: Homo sapiens, MOLT-4, Leukemia, read-out: Cell growth inhibition %
Method: as §1, §2

SN12C = conditions: Homo sapiens, Renal cancer, read-out: Cell growth inhibition %
Method: as §1, §2

K-562 = conditions: Homo sapiens, K562, K-562, Leukemia, read-out: Cell growth inhibition %
Method: as §1, §2

OVCAR-5 = conditions: Homo sapiens, OVCAR-5, Ovarian cancer, read-out: Cell growth inhibition %
Method: as §1, §2

NCI-H322M = conditions: Homo sapiens, Non-small cell lung cancer, read-out: Cell growth inhibition %
Method: as §1, §2

HCT-116 = conditions: Homo sapiens, HCT-116, Colon cancer, read-out: Cell growth inhibition %
Method: as §1, §2

HL-60(TB) = conditions: Homo sapiens, Leukemia, read-out: Cell growth inhibition %
Method: as §1, §2

ACHN = conditions: Homo sapiens, Renal cancer, read-out: Cell growth inhibition %
Method: as §1, §2

KM12 = conditions: Homo sapiens, KM12, Colon cancer, read-out: Cell growth inhibition %
Method: as §1, §2

OVCAR-4 = conditions: Homo sapiens, OVCAR-4, Ovarian cancer, read-out: Cell growth inhibition %
Method: as §1, §2

MALME-3M = conditions: Homo sapiens, Melanoma, read-out: Cell growth inhibition %
Method: as §1, §2

TK-10 = conditions: Homo sapiens, TK-10, Renal cancer, read-out: Cell growth inhibition %
Method: as §1, §2

SW-620 = conditions: Homo sapiens, SW-620, Colon cancer, read-out: Cell growth inhibition %
Method: as §1, §2

UACC-257 = conditions: Homo sapiens, UACC-257, Melanoma, read-out: Cell growth inhibition %
Method: as §1, §2

SNB-75 = conditions: Homo sapiens, SNB-75, CNS cancer, read-out: Cell growth inhibition %
Method: as §1, §2

BT-549 = conditions: Homo sapiens, BT-549, Breast cancer, read-out: Cell growth inhibition %
Method: as §1, §2

CAKI-1 = conditions: Homo sapiens, CAKI-1, Renal cancer, read-out: Cell growth inhibition %
Method: as §1, §2

MDA-MB-231/ATCC = conditions: Homo sapiens, Breast cancer, read-out: Cell growth inhibition %
Method: as §1, §2

NCI-H460 = conditions: Homo sapiens, NCI-H460, Non-small cell lung cancer, read-out: Cell growth inhibition %
Method: as §1, §2

HCC-2998 = conditions: Homo sapiens, HCC-2998, Colon cancer, read-out: Cell growth inhibition %
Method: as §1, §2

UACC-62 = conditions: Homo sapiens, UACC-62, Melanoma, read-out: Cell growth inhibition %
Method: as §1, §2

SK-MEL-5 = conditions: Homo sapiens, SK-MEL-5, Melanoma, read-out: Cell growth inhibition %
Method: as §1, §2

RPMI-8226 = conditions: Homo sapiens, RPMI-8226, Leukemia, read-out: Cell growth inhibition %
Method: as §1, §2

Structure (SMILES)	inhibition at 10 µM (MDA-MB-468) [%]	inhibition at 10 µM (HT29) [%]	inhibition at 10 µM (HCT-15) [%]	inhibition at 10 µM (SK-MEL-2) [%]	inhibition at 10 µM (CCRF-CEM) [%]	inhibition at 10 µM (DU-145) [%]	inhibition at 10 µM (PC-3) [%]	inhibition at 10 µM (SK-OV-3) [%]	inhibition at 10 µM (COLO 205) [%]	inhibition at 10 µM (NCI/ADR-RES) [%]	inhibition at 10 µM (M14) [%]	inhibition at 10 µM (NCI-H23) [%]	inhibition at 10 µM (OVCAR-8) [%]	inhibition at 10 µM (MOLT-4) [%]	inhibition at 10 µM (SN12C) [%]	inhibition at 10 µM (K-562) [%]	inhibition at 10 µM (OVCAR-5) [%]	inhibition at 10 µM (NCI-H322M) [%]	inhibition at 10 µM (HCT-116) [%]	inhibition at 10 µM (HL-60(TB)) [%]	also measured
O=C(CSc1nnc(-c2c[nH]c3ccccc23)n1-c1ccccc1)c1ccc(Br)cc1 [Compound 6i, 2-((5-(1H-Indol-3-yl)-4-phenyl-4H-1,2,4-triazol-3-yl)thio)-1-(4-bromophenyl) Ethenone]	78	42.6	56	119	13.6	41.5	53.8	51.4	86.5	100	49	46	56.5	7.77	27.1	18	41.7	54.3	45.7	55.5	inhibition at 10 µM (ACHN): 62.6%; inhibition at 10 µM (KM12): 65.4%; inhibition at 10 µM (OVCAR-4): 53.8%; inhibition at 10 µM (MALME-3M): 29%; inhibition at 10 µM (TK-10): 35.1%; inhibition at 10 µM (SW-620): 20.2%; inhibition at 10 µM (UACC-257): 47.5%; inhibition at 10 µM (SNB-75): 61.2%; inhibition at 10 µM (BT-549): 34.8%; inhibition at 10 µM (CAKI-1): 55.7%; inhibition at 10 µM (MDA-MB-231/ATCC): 34%; inhibition at 10 µM (NCI-H460): 65.5%; inhibition at 10 µM (HCC-2998): 68.3%; inhibition at 10 µM (UACC-62): 64.8%; inhibition at 10 µM (SK-MEL-5): 82.8%; inhibition at 10 µM (RPMI-8226): 45.6%
O=C(CSc1nnc(-c2c[nH]c3ccccc23)n1-c1ccccc1)c1ccc(Cl)cc1 [Compound 6j, 2-((5-(1H-indol-3-yl)-4-phenyl-4H-1,2,4-triazol-3-yl)thio)-1-(4-chlorophenyl) Ethenone]	53.6	57.4	26.7	66.3	7.26	11.6	39.5	27.9	57.4	94.2	19.4	59.2	75.5	-3.56	35.4	31	9.28	41.3	54.2	11.1	inhibition at 10 µM (ACHN): 42.5%; inhibition at 10 µM (KM12): 21.3%; inhibition at 10 µM (OVCAR-4): 85.1%; inhibition at 10 µM (MALME-3M): 36%; inhibition at 10 µM (TK-10): 16%; inhibition at 10 µM (SW-620): 29.7%; inhibition at 10 µM (UACC-257): 27.7%; inhibition at 10 µM (SNB-75): 45.3%; inhibition at 10 µM (BT-549): 30.2%; inhibition at 10 µM (CAKI-1): 35.5%; inhibition at 10 µM (MDA-MB-231/ATCC): 48.3%; inhibition at 10 µM (NCI-H460): 39.9%; inhibition at 10 µM (HCC-2998): 21.9%; inhibition at 10 µM (UACC-62): 47.2%; inhibition at 10 µM (SK-MEL-5): 21.8%; inhibition at 10 µM (RPMI-8226): 16.8%
C=CCn1c(SC/C(=N\O)c2ccccc2)nnc1-c1c[nH]c2ccccc12 [Compound 7a, (Z)-2-((4-Allyl-5-(1H-indol-3-yl)-4H-1,2,4-triazol-3-yl)thio)-1-phenylethanone Oxime]	15.4	-3.61	4.41	-6.77	0.66	-5.82	9.77	2.21	2.04	-6.66	-13.4	-1.28	1.16	2.51	2.4	3.29	-3.15	-0.17	9.24	9.34	inhibition at 10 µM (ACHN): 3.82%; inhibition at 10 µM (KM12): -2.55%; inhibition at 10 µM (OVCAR-4): -8.19%; inhibition at 10 µM (MALME-3M): 7.6%; inhibition at 10 µM (TK-10): -12.2%; inhibition at 10 µM (SW-620): 0.27%; inhibition at 10 µM (UACC-257): -13.1%; inhibition at 10 µM (SNB-75): -3.17%; inhibition at 10 µM (BT-549): -3.51%; inhibition at 10 µM (CAKI-1): 6.71%; inhibition at 10 µM (MDA-MB-231/ATCC): 3.9%; inhibition at 10 µM (NCI-H460): 3.34%; inhibition at 10 µM (HCC-2998): 0.84%; inhibition at 10 µM (UACC-62): 13.6%; inhibition at 10 µM (SK-MEL-5): 1.57%; inhibition at 10 µM (RPMI-8226): 0.38%
C=CCn1c(SCC(=NO)c2ccc(OC)cc2)nnc1-c1c[nH]c2ccccc12 [Compound 7b, 2-((4-allyl-5-(1H-indol-3-yl)-4H-1,2,4-triazol-3-yl)thio)-1-(4-methoxyphenyl) Ethanone Oxime]	16.3	-5.85	4.34	-7.88	8.83	-5.85	14.9	1.86	-11.9	-3.18	2.83	4.86	7.1	8.18	8.24	13.6	-4.1	-1.52	23.6	16.1	inhibition at 10 µM (ACHN): 7.56%; inhibition at 10 µM (KM12): -5.28%; inhibition at 10 µM (OVCAR-4): -1.81%; inhibition at 10 µM (MALME-3M): 3.2%; inhibition at 10 µM (TK-10): -27.2%; inhibition at 10 µM (SW-620): -2.43%; inhibition at 10 µM (UACC-257): -11.5%; inhibition at 10 µM (SNB-75): -12.9%; inhibition at 10 µM (BT-549): -3.8%; inhibition at 10 µM (CAKI-1): 1.5%; inhibition at 10 µM (MDA-MB-231/ATCC): 13.5%; inhibition at 10 µM (NCI-H460): 5.34%; inhibition at 10 µM (HCC-2998): -8.35%; inhibition at 10 µM (UACC-62): 20.9%; inhibition at 10 µM (SK-MEL-5): 10.5%; inhibition at 10 µM (RPMI-8226): 14.9%
